Measurements as given in paper PMC4819005 (ACS chemical biology, 2015).
Peptide text beside a SMILES is read from it.

Legend:
3T3-L1 cells = assay: In vitro adipocyte differentiation, Oil Red O staining for lipid accumulation; assay type: cell-based; conditions: differentiated 3T3-L1 preadipocytes, treated 2 or 3 days
[1] = tested on: aP2 (FABP4) mRNA in SVF cells; assay: qPCR of PPARγ target gene aP2; assay type: cell-based, murine; conditions: 5 μM compound, 3 days, normalized to GAPDH
PPARγ = conditions: cited from earlier work
[2] = Aggregation seen in SPR running buffer; assay type: physicochemical; conditions: PBS + 5%DMSO

CCC(NC(=O)c1ccc2c(ccn2S(=O)(=O)c2cccc3ccccc23)c1)c1ccccc1 (stereo not shown) [SR2067, 1-(Naphthalen-1-ylsulfonyl)-N-(1-phenylpropyl)-1H-indole-5-carboxamide]
oil red staining for lipid accumulation (3T3-L1 cells): less than that of the full agonist rosiglitazone but higher than that of the antagonist SR1664 | expression levels of the PPARγ target gene aP2 [1]: lower than those observed in cells treated with the full agonist rosiglitazone but higher than those in cells exposed to the antagonist SR1664

N[C@@H](Cc1c[nH]c2ccccc12)C(=O)N[C@@H](CCC(=O)O)C(=O)O [G3335] (H-Trp-Glu-OH)
kd (PPARγ): 0.028 s⁻¹

CN(CCOc1ccc(CC2SC(=O)NC2=O)cc1)c1ccccn1 (stereo not shown) [rosiglitazone, Rosiglitazone]
concentration above which concentration-dependent aggregation occurs [2]: above 30 μM
